Measured values published in US4563452A, “Derivatives of oxazinobenzothiazine-6,6-dioxide” (Provesan S.A., priority 1982, dated 1986).
Like-named read-outs stand apart in the source and are kept apart here.

How the values were obtained:
[1] = system: oedema produced by carrageenin; test: Anti-inflammatory activity (inhibition of oedema produced by carrageenin), method of Winter; type: in vivo, Male rats of the Sprague-Dawley HC/CEY strain; conditions: Rattus norvegicus, oral, 1 hour before carrageenin, ED-50 = dose which reduces the oedema volume by 25%
Procedure: ANTI-INFLAMMATORY ACTIVITY (INHIBITION OF OEDEMA PRODUCED BY CARRAGEENIN)
Method developed by Winter (Winter, C. A., Risley, E. A. and Nuss, G. W. Proc. Soc. Exp. Biol. Med., […] (1962)).
Male rats of the Sprague-Dawley HC/CEY strain are used, weighing from 90 to 110 g. The products are administered suspended in 5% gum arabic, by an oral method using an oesophageal probe, 1 hour before a subplantar injection in the right foot of each animal of 0.1 ml of 1% carrageenin suspension in physiological serum (NaCl 0.9%). The control animals are given 5% gum arabic, the total volume which is used in every case amounting to 10 ml/kg.
The volume of each foot is measured immediately before the carrageenin injection (time 0), then three and five hours after this injection using a mercury plethysmograph.
The inflammation index is calculated for each animal after 3 hours (I3) and after 5 hours (I5) after the carrageenin injection by means of the following formulae: [formula] wherein: VO =volume of the foot at time zero (immediately before the administration of carrageenin)
V3 =volume of the foot 3 hours after the injection of carrageenin
V5 =volume of the foot 5 hours after the injection of carrageenin.
The average inflammation index is calculated for the control batch after 3 hours (It3) and after 5 hours (It5).
The percentage of inhibition of the oedema (anti-inflammatory activity) is calculated for each animal by means of the formulae: [formula] wherein: A3 =anti-inflammatory activity in percentage of inhibition of the oedema after 3 hours
A5 =anti-inflammatory activity in percentage of inhibition of the oedema after 5 hours.
The anti-inflammatory activity is proportional to the logarithm of the administered dose. The dose which reduces the volume of the odema by 25% is obtained from the curve of dose logarithm-% effect. This dose is adopted as ED-50, since the maximum effect which is achieved is the reduction of the oedema by 50%.

[2] = system: pain induced by acetyl choline; test: Analgesic activity with respect to the pain induced by acetyl choline (contortions), method of Collier; type: in vivo, Male mice of the Swiss strain; conditions: Mus musculus, po, dose which reduces the number of contortions to half the initial value
Procedure: Analgesic activity with respect to the pain induced by acetyl choline
Method developed by Collier (Collier, H. O. W. Dinneen, L. C. Johnson, C. A. and Schneider, C.--Br. J. Pharmac. Chemother., 32, 295-310 (1968)).
Male mice of the Swiss strain are used, weighing from 20 to 25 g. The mice are put into individual cages. A volume of 0.2 ml/20 g of a solution of acetyl choline bromide of 0.32 mg/ml is administered intraperitoneally to each animal. Thus, the injected dose of acetyl choline bromide is 3.2 mg/kg. The number of contortions or stretches performed by each mouse is counted over a period of 5 minutes. After 5 minutes, the products are administered using 5% gum arabic as a vehicle. After 40 and 120 minutes of administration of the products, another injection of acetyl choline is given and the number of contortions which are observed over a period of 5 minutes is counted.
The percentage of inhibition of the number of contortions after 40 and 120 minutes is calculated for each animal using the following formulae: [formula] wherein: NO =number of contortions before the product is administered
N40 =number of contortions 40 minutes after administration of the product
N120 =number of contortions 120 minutes after administration of the product.
The percentage of inhibition of the contortions is directly proportional to the logarithm of the administered dose. The dose which reduces the number of contortions to half the initial value (ED-50) is obtained from the curve of dose logarithm-% effect.

[3] = target: T1, prostaglandin-synthetase (1.14.99.1) (Bos taurus, UniProt O62664); test: Inhibition of the prostaglandin-synthetase of seminal vesicle of cattle, method of Yoshimoto; type: biochemical; conditions: in vitro; 37° C., 5 minutes contact of enzyme with product, then 10 minutes incubation with arachidonic acid; pH 8.0
T1 construct: Prostaglandin-Synthetase of Seminal Vesicle of Cattle; from tissue; host or cells: seminal vesicle of cattle
T1 sequence (O62664 25-600): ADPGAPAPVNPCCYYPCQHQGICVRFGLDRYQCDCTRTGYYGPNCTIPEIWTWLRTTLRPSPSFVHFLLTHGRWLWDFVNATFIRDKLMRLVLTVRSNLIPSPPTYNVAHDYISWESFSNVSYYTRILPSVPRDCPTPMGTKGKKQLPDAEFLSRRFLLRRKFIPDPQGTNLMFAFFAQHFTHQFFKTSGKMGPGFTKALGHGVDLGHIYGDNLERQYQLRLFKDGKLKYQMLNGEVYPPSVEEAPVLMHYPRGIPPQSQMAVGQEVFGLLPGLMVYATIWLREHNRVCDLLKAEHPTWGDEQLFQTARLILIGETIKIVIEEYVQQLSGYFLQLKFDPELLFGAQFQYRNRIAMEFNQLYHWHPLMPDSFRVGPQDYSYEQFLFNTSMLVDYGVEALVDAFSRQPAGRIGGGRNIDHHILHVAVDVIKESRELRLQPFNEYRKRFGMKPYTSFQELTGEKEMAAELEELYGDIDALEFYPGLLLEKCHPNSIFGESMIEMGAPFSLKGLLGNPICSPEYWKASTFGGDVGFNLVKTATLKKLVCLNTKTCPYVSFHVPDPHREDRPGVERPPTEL
Procedure: Inhibition of the Prostaglandin-Synthetase of Seminal Vesicle of Cattle
The activity of the prostaglandin-synthetase (1.14.99.1) is determined by measuring the increases in absorbance at 278 nm due to the formation of prostaglandin B from prostaglandin E in an alkaline medium.
The incubation temperature was 37±0.1° C. in every case.
0.5 ml of substrate solution (0.6 mg of arachidonic acid in 10 ml of buffer) and 0.5 ml of buffer are added to 1.5 ml of cofactor solution (0.55 mg of hydroquinone+0.5 mg of hemoglobin+7.7 mg of glutathione in 12 ml of 0.2M Tris-HCl buffer of pH 8.0), containing 10 mg of enzyme, and the mixture is incubated at 37° C. for 10 minutes. The enzymatic reaction is stopped by the addition of 1.5 ml of 0.2M citric acid and the pGE is extracted with 2×5 ml of ethyl acetate. The organic phase is evaporated under a stream of nitrogen at 40° C. and the residue is redissolved in 2 ml of methanol and 0.5 ml of 3M potassium hydroxide. Finally, the absorptions at 278 nm are measured with respect to a blank to which 0.5 ml of buffer are added instead of 0.5 ml of substrate solution.
The enzymatic activity is expressed as an increase in the optical density for 10 minutes of reaction.
The subsequent stages are identical to those which have already been described. […]

[4] = 3 hours after carrageenin injection, read-out: ED-50 3 hours
[5] = 5 hours after carrageenin injection, read-out: ED-50 5 hours
[6] = 40 min, 40 minutes after administration, read-out: ED-50 40 min.
[7] = 2 h, 120 minutes after administration, read-out: ED-50 120 min.

Structure (SMILES)	ED50 [1, 4] [mg/kg]	ED50 [1, 5] [mg/kg]	ED50 [2, 6] [mg/kg]	ED50 [2, 7] [mg/kg]	IC50 [3] [µM]
CCCCC1C(=O)N(c2ccccc2)N(c2ccccc2)C1=O [Phenylbutazone, reference compound]	17	17	40	35	300
CN1c2c(oc(=S)n(-c3ccccn3)c2=O)-c2ccccc2S1(=O)=O [Example 3, 5-methyl-3-(2-pyridyl)-2H,5H-1,3-oxazino[5,6-c][1,2]benzothiazine-2(3H)thione-4-one-6,6-dioxide]	> 40	> 40	25	25	–
Cc1cc(-n2c(=O)oc3c(c2=O)N(C)S(=O)(=O)c2ccccc2-3)no1 [Example 4, 5-methyl-3-[3-(5-methylisoxazolyl)]-2H,5H-1,3-oxazino[5,6-c][1,2]benzothiazine-2,4-(3H)dione-6,6-dioxide]	38	39	154	154	–
Cc1cccc(-n2c(=O)oc3c(c2=O)N(C)S(=O)(=O)c2ccccc2-3)n1 [Example 7, 5-methyl-3-[2-(6-methylpyridyl)]-2H,5H-1,3-oxazino[5,6-c][1,2]benzothiazine-2,4-(3H)dione-6,6-dioxide]	20	25	7.5	10	–
CN1c2c(oc(=O)n(-c3ccccn3)c2=O)-c2ccccc2S1(=O)=O [Example 2, 5-methyl-3-(2-pyridyl)-2H,5H-1,3-oxazino[5,6-c][1,2]benzothiazine-2,4-(3H)dione-6,6-dioxide]	2.3	2.6	1.8	1.1	100
CCN1c2c(oc(=O)n(-c3ccccn3)c2=O)-c2ccccc2S1(=O)=O [Example 1, 5-ethyl-3-(2-pyridyl)-2H,5H-1,3-oxazino[5,6-c][1,2]benzothiazine-2,4-(3H)dione-6,6-dioxide]	> 40	> 40	> 160	> 160	–
Cc1ccnc(-n2c(=O)oc3c(c2=O)N(C)S(=O)(=O)c2ccccc2-3)c1 [Example 6, 5-methyl-3-[2-(4-methylpyridyl)]-2H,5H-1,3-oxazino[5,6-c][1,2]benzothiazine-2,4-(3H)dione-6,6-dioxide]	> 40	> 40	> 160	> 160	–
CN1c2c(oc(=O)n(-c3ncccn3)c2=O)-c2ccccc2S1(=O)=O [Example 5, 5-methyl-3-(2-pyrimidinyl)-2H,5H-1,3-oxazino[5,6-c][1,2]benzothiazine-2,4-(3H)dione-6,6-dioxide]	> 40	> 40	> 160	> 160	–
